Source: patent publication US4172894A, “3-Thienyl-3-methyl-4-pentyl-2-pyridyl-ketone” (Laboratories Made, S.A., priority 1977, dated 1979)

Tests used:
[1] = test system: Swiss I.C.R. albino mice; assay: Chemical analgesia, acetic acid writhing technique in mice; assay type: in vivo; conditions: 25 mg/kg, intraperitoneal, 30 minutes before 0.25 ml of 1% acetic acid; counted 20 minutes later; control 121.5 ± 7.184
Experimental: The analgesic effect was studied in Swiss I.C.R. albino mice with the acetic acid writhing technique. Batches of 10 mice were made.
The products in study were administered intraperitoneally, and 30 minutes later 0.25 ml of 1% acetic acid were injected intraperitoneally. A batch of control animals received only the acetic acid. Twenty minutes following administration of the acetic acid, the number of writhes in each mouse is counted.

[2] = Acute toxicity in mice, intraperitoneal, deaths counted 48 hours after treatment (Litchfield-Wilcoxon); set-up: species or system Swiss I.C.R. albino mice; conditions: mouse, in vivo, ip, deaths at 48 hours, Litchfield-Wilcoxon test
Experimental: Acute toxicity study was made in Swiss I.C.R. albino mice of both sexes of 30±2 g of weight, kept without food for 24 hours prior to the experiment. Ambient temperature and relative humidity were kept constant. The products were administered intraperitoneally, and 48 hours after treatment the number of deaths was counted. Calculation of the lethal dose (LD50) was made by the Litchfield-Wilcoxon test.

[3] = test system: Swiss I.C.R. albino mice; assay: Thermal analgesia, 55° C. "hot plate" technique in mice; assay type: in vivo; conditions: 30 mg/kg, intraperitoneal, 30 minutes before 55° C. hot plate; control 38 ± 4.253
Experimental: The thermal analgesic effect was studied in Swiss I.C.R. albino mice. The 55° C. "hot plate" technique was used. Batches of 10 mice were made.
The products in study were administered intraperitoneally and after 30 minutes the mice were placed on the "hot plate", note having been made, in seconds, of the time it took them to jump. Batches of control animals were injected with only distilled water.

Row | SMILES | No. of writhes (mean ± S.E.M.) [1] | LD50 at 48 h [2] [mg/kg] | Jumping time (mean ± S.E.M.) [3] [see.]
1 | CCC(=O)O[C@](Cc1ccccc1)(c1ccccc1)[C@H](C)CN(C)C [Dextropropoxyphene, dextropropoxyphene] | 62.8 | 140 | 83.7
2 | CCCCCc1ccnc(C(=O)c2ccsc2)c1C [Product I, 3-thienyl-3-methyl-4-pentyl-2-pyridyl-ketone] | 35.75 | 718 | 96.7
